Entries after “also recorded” stand apart in the source; their conditions may differ.
How the values were obtained:
human TYR [1] = biological target: T1, human TYR (Homo sapiens, UniProt P14679); design: method as in PMID 31382682, PMID 23476698, PMID 26914711; conditions: HEK293-TYR; ref [43],[45],[47]; cited from earlier work
T1 construct: expressed in transfected cells; Triton X-100 lysate supernatant
T1 sequence (P14679 19-529): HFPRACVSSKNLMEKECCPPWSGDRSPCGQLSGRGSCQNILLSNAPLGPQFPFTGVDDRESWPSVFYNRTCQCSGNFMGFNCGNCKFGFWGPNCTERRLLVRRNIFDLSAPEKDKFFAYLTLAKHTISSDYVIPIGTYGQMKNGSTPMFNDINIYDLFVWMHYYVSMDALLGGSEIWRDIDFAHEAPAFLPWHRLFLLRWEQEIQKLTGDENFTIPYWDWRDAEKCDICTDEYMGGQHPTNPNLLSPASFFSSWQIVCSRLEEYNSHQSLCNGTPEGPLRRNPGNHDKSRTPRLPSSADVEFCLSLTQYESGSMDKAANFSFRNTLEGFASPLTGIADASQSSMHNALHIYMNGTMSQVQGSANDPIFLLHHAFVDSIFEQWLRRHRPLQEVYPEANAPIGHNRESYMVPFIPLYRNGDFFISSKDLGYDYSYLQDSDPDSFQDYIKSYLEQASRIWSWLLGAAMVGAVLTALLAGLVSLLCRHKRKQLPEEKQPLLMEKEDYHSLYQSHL

[2] = tested on: cellular melanin production; design: method as in earlier work; conditions: ref [55] Baek et al.; cited from earlier work
mushroom TYR = tested on: mushroom TYR; design: method as in earlier work; conditions: ref [55] Baek et al.; read-out: IC50, catalytic activity of mushroom TYR in vitro; cited from earlier work
human TYR [3] = biological target: T1, human TYR; experiment: In vitro TYR catalytic activity assay, lysate of HEK293-TYR cells; type: biochemical; conditions: each drug at 1.0 μM, library screening
Description: (§1) To examine the direct effect of a drug on the catalytic activity of TYR, in vitro experiments were undertaken. Lysate of B16F10 cells stimulated with α-MSH for 24 h was used as a murine TYR preparation. Human TYR preparation was the lysate of human embryonic kidney 293 cells constitutively expressing human TYR (HEK293-TYR). […] The TYR activity assay mixture (200 μL) consisted of 100 mM sodium phosphate buffer (pH 6.8), TYR preparation (40 μg protein), a drug at various concentrations, 1.0 mM L-tyrosine, and 42 μΜ L-DOPA. For enzyme kinetic study, the concentrations of L-tyrosine plus L-DOPA were varied while their relative ratio was kept the same as the standard assay condition. […] The reactions were also performed in the absence of a TYR preparation to correct for the effects of non-enzymatic reactions. Enzyme activity was calculated as follows: activity (% control) = (C−D)/(A−B) × 100, where A and B are the absorbance changes of the control group with and without enzyme, respectively, while C and D are the absorbance changes of the test group with and without enzyme, respectively.

murine TYR = biological target: T2, murine TYR (Mus musculus, UniProt P11344); experiment: In vitro TYR catalytic activity assay, lysate of α-MSH-stimulated B16F10 cells; type: biochemical; conditions: murine TYR, varying substrate concentrations
T2 construct: One is the protein extract of B16F10 cells stimulated by α-MSH and thus expresses a high amount of TYR; endogenous in cells; host or cells: B16F10 murine melanoma cells stimulated with α-MSH for 24 h; Triton X-100 lysate supernatant
T2 sequence (P11344 19-533): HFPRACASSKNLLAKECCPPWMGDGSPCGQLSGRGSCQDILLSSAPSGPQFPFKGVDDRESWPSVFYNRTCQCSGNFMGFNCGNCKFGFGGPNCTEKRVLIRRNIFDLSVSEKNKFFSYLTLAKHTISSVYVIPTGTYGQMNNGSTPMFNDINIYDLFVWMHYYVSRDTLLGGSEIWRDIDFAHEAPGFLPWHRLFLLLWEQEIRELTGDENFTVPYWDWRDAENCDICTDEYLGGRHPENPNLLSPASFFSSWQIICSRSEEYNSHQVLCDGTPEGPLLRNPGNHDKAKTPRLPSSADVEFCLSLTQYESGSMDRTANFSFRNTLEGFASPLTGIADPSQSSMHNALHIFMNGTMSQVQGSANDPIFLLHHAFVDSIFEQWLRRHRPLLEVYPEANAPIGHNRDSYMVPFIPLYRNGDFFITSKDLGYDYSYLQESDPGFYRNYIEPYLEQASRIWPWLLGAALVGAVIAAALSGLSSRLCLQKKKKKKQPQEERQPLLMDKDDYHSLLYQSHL
Description: as §1

[4] = Copper chelating activity assay (pyrocatechol violet); type: physicochemical; conditions: 200 μM test compound, 200 μM copper ions, 200 μM pyrocatechol violet, absorbance 632 nm
Description: Copper chelating activity was determined by using pyrocatechol violet (Sigma-Aldrich). […] The reaction mixture containing a potential chelator at varied concentrations, 200 μM CuSO4, and 200 μM pyrocatechol violet was incubated at 25 °C for 20 min, and its absorption spectra were recorded using a Shimadzu UV-1650PC spectrophotometer (Shimadzu Corporation, Kyoto, Japan). Copper chelating activity was evaluated by the change in the absorbance of pyrocatechol violet at 632 nm.

TYR = experiment: In vitro TYR catalytic activity, murine and human TYR given together (abstract); type: biochemical; conditions: range over human and murine TYR preparations
Description: as §1

[5] = tested on: B16-F10 murine melanoma cells; experiment: Screening assay for overall melanin synthesis (OD 400 nm) in α-MSH-stimulated cells; type: cell-based; conditions: 100 nM α-MSH, 72 h; for relative melanin synthesis (OD 400 nm): drug 1.0 μM
Description: For the screening assay, B16-F10 cells were plated in 96-well plates (3 × 10^3 cells per well) and cultured for 24 h. The cells were then treated with a test drug at 1.0 μM for 60 min, and subsequently stimulated with 0.1 μM α-MSH for 72 h. Overall melanin synthesis was estimated by measuring the absorbance of each well (cells plus medium, without cell lysis) at 400 nm using a Spectrostar Nano microplate reader (BMG LABTECH GmbH, Ortenberg, Germany).

B16-F10 cells = experiment: Cell viability assay (MTT); type: cell-based, murine; conditions: 48 h; for relative viability: drug 1.0 μM
Description: Cell viability was evaluated using 3-(4,5-dimethylthiazol-2-yl)-2,5-diphenyltetrazolium bromide (MTT). After treatment of B16-F10 cells with each drug for 48 h, cells were washed with phosphate-buffered saline (PBS) and incubated for 2 h in the culture medium containing 1 mg∙mL^−1 MTT (Amresco, Solon, OH, USA). The medium was discarded by aspiration, the formazan dye deposited inside the cells was extracted with isopropanol, and absorbance was measured at 595 nm using a Spectrostar Nano microplate reader.

For `O=C(O)/C=C/c1ccc(O)cc1` [p-coumaric acid], the IC50 (human TYR [1]) is given as 4 µM.
For `O=C(NO)c1ccc(NC(=O)C23CC4CC(CC(C4)C2)C3)cc1` [1a, 4-(Adamantanecarboxamido)-N-hydroxybenzamide], the IC50 [2] is listed as 3.78 µM and the IC50 (mushroom TYR) is listed as 12 µM.
For `CCN(CC)Cc1ccc2cc(COC(=O)Nc3ccc(C(=O)NO)cc3)ccc2c1.Cl.O` [C10, (6-((diethylamino)methyl)naphthalen-2-yl)methyl (4-(hydroxycarbamoyl)phenyl)carbamate hydrochloride hydrate], the “human TYR inhibitory effect” value (human TYR [3]) was “potent TYR inhibitory effects; also recorded: showed excellent inhibitory action”.
In the case of `OC[C@H]1O[C@@H](Oc2ccc(O)cc2)[C@H](O)[C@@H](O)[C@@H]1O` [β-arbutin, 4-hydroxyphenyl-β-D-glucopyranoside], the “inhibition type (Lineweaver–Burk plots)” value (murine TYR) is reported as “competitive inhibition”, the copper ions chelated [4] is reported as “did not show copper chelating activity” and the IC50 (TYR) is reported as 500 to 700 µM.
In the case of `O=C(NO)c1ccc(C(=O)NC23CC4CC(CC(C4)C2)C3)cc1` [1b, N1-Adamantyl-N4-hydroxyterephthal amide], the IC50 [2] is given as 7.46 µM and the IC50 (mushroom TYR) is given as 8.99 µM.
For `Cn1c(C=CC(=O)NO)ccc1C=CC(=O)c1cccc(F)c1` [M3, 3-(5-(3-(3-Fluorophenyl)-3-oxopropen-1-yl)-1-methyl-1H-pyrrol-2-yl)-N-hydroxy-2-propenamide], the “relative melanin synthesis (OD 400 nm)” value [5] was “showed no melanin inhibitory action” and the “human TYR inhibitory effect” value (human TYR [3]) was “potent TYR inhibitory effects; also recorded: showed excellent inhibitory action”.
For `COc1cc2c(NC3CCN(C(C)C)CC3)nc(C3CCCCC3)nc2cc1OCCCN1CCCC1` [C3, UNC0638], the relative viability (B16-F10 cells) was “showed strong cytotoxicity”.
For `O=c1cc(-c2ccc(O)c(O)c2)oc2cc(OS(=O)(=O)O)cc(O)c12` [luteolin 7-sulfate], the IC50 (human TYR [1]) is listed as 8.2 µM.
In the case of `O=C(C=Cc1cccc(C(=O)NO)c1)NO` [H4, N-hydroxy-3-(3-(hydroxyamino)-3-oxo-1-propen-1-yl)-benzamide], the “relative melanin synthesis (OD 400 nm)” value [5] is reported as “markedly inhibited cellular melanin synthesis”, the “melanin synthesis (OD 400)” value ([5]; drug at varied concentrations) is reported as “attenuated by both drugs in a dose-dependent manner” and the relative viability (B16-F10 cells) is reported as “without reducing cell viability”. For the same compound, the “cytotoxicity (relative viability)” value (B16-F10 cells; drug at various concentrations) was “showed toxicity at 3 μM and higher concentrations” and the “human TYR inhibitory effect” value (human TYR [3]) was “potent TYR inhibitory effects”.
With `COc1ccc(Cn2ccc3ccc(C(=O)NO)cc32)cc1` [A5, N-Hydroxy-1-((4-methoxyphenyl)methyl)-1H-indole-6-carboxamide] the “relative melanin synthesis (OD 400 nm)” value [5] was “showed no melanin inhibitory action” and the “human TYR inhibitory effect” value (human TYR [3]) was “potent TYR inhibitory effects; also recorded: showed excellent inhibitory action”.
For `O=c1cc(CO)occ1O` [kojic acid], the copper ions chelated [4] is listed as 36% and the IC50 [2] is listed as 2000 µM.
